Measurements from US20080154102A1, “Intraoperative imaging methods” (priority 2006, published 2008).

What was measured:
common bile duct [1] = experiment: Cholangiographic imaging with methylene blue in rats; type: in vivo; conditions: 1 mg/kg iv
Procedure: In anesthetized rats, 100 μL/kg of 1% MB (1 mg/kg) was injected intravenously via penile vein. A simultaneous color video/NIR fluorescence intraoperative imaging system was employed for quantification of fluorescence images. For multi-wavelength fluorescence imaging, 0.25 ml of 100 uM ICG (75 nmol/kg) was injected intravenously in rat and hepatic arteriography and portography can be seen.

[2] = Fluorescence spectrometry and fluorescence quantum yield; type: physicochemical
Procedure: (§1) Absorbance spectrometry was performed with a 1-cm path length quartz cuvette in a USB2000 fiber-optic spectrometer (Ocean Optics, Dunedin, Fla.). Fluorescence spectrometry was performed with a 1-cm path length, 1.5 mL disposable methacrylate cuvette (Fisher Scientific, Hampton, N.H.) in a HR2000 fiber-optic spectrometer, and CUV-ALL-UV four-way cuvette holder (Ocean Optics), using a 655 nm laser diode light source (OPCOM O.E. Inc., Xiamen, China) with maximum output less than 5 mW. Data acquisition was performed with a computer using an OOI-Base32 spectrometer operating software package (Ocean Optics). The spectral range of the USB2000-FL spectrometer was from 350 to 1000 nm with spectral resolution of 7.6 nm, and that of the HR2000 spectrometer was from 200 to 1100 nm with a spectral resolution of 6.7 nm.
Fluorescence intensity was measured in each solvent (PBS, FBS, and methanol) at each concentration of the dye to determine the effect of the methylene blue concentration and solvents on total fluorescence yield. Fluorescence quantum yields of methylene blue in PBS, FBS, and methanol were calculated using oxazine725 in ethylene glycol (quantum yield: 19%) as a calibration standard, under the conditions of matched absorbance of methylene blue in each solvent.

[3] = Environment-, concentration- and pH-dependence of MB fluorescence; type: physicochemical
Procedure: For the experiment shown in FIG. 1A, pure methylene blue powder was dissolved in phosphate-buffered saline (pH 7.4), 100% fetal bovine serum, or absolute methanol, at the concentration shown, and fluorescence intensity (arbitrary values) measured.
For this experiment, pure methylene blue powder was dissolved in PBS, FBS, or methanol, at the concentrations shown in FIGS. 1A-C, the spectrum of its absorbance and fluorescence emission obtained, and the peak of each identified.
Finally, the pH dependence of MB was examined, by dissolving MB in PBS (pH 6), Ascorbic Acid, HCl, and a NaHCO3-buffered solution. […] This is an important consideration because intermolecular quenching and internal absorption often limit the usable dose range of fluorescent contrast agents.

ureter = experiment: Ureteral mapping with methylene blue in pigs; type: in vivo; conditions: preclinical studies, in some cases
Procedure: In anesthetized 3 pigs, 1 mg/kg of methylene blue was injected intravenously and then the abdomen was opened surgically and ureter was identified by imaging. For pelvic arteriography, 0.06 mg/kg ICG (75 nmol/kg) was injected intravenously.

[4] = test system: coronary arteries and myocardium; experiment: Angiographic and myocardial perfusion imaging in rats; type: in vivo
Procedure: (§2) Male Sprague-Dawley, 300 g rats obtained from Charles River Laboratories (Wilmington, Mass.) were anesthetized with 65 mg/kg IP pentobarbital. 30 kg adult female Yorkshire pigs (E.M. Parsons & Sons, Hadley, Mass.) were induced with 4.4 mg/kg intramuscular Terazol (Fort Dodge Labs, Fort Dodge, Iowa). Pigs were intubated and maintained with 1.5-2% isoflurane.
(§3) In anesthetized rats, 0.1, 0.5 and 1 mg/kg MB were injected intravenously, and then images were taken during 15 min after injection. Signal to background ratio (SBR) (the signal of left anterior descending branch of coronary artery (LAD) relative to that of chest wall, and the signal of myocardium relative to that of chest wall) was quantified using the same region of interest (ROI) through entire observation. In anesthetized pigs, 100 μL/kg of 0.5% methylene blue (1.6 μmol/kg) was injected intravenously and then the hearts were observed using the imaging system described herein. For multi-wavelength fluorescence imaging, 0.25 ml of 100 μM ICG (75 nmol/kg) was injected intravenously in rats and 0.06 mg/kg ICG (75 nmol/kg) in pigs.
The system was adjusted to account for the optical properties of methylene blue. Briefly, the light source of the original system is composed of a white light source and a near-infrared light source. The surgical field is illuminated with both lights, and its excitation fluence rate is 5 mW/cm^2. White light and near-infrared images were able to be captured separately using a dichroic filter cube set, and these images could be merged. Images were captured and refreshed 15 times a second.
The system was modified in 3 ways for use with MB. First, the white lights were filtered with HQ675SP (Chroma Technology, Brattleboro, Vt.). Second, 4 pairs of 400 mA, 660 nm LEDs were added and filtered with HQ650/45X (chroma.) instead of the near-infrared light source. Excitation fluence rate with this new light source is 1 mW/cm^2. Third, the dichroic filter and emission filter were changed to 680 dcxr (chroma.), HQ700/35 (chroma.), respectively.

parathyroid gland = experiment: Parathyroid gland imaging using methylene blue; type: in vivo; conditions: 2 mg/kg over 15 minutes, along with NaHCO3
Procedure: To determine whether MB fluorescence emissions could be used to image the parathyroid gland, 2 mg/kg MB was administered over 15 minutes, along with NaHCO3, prior to surgery.

Absorbance spectrometry = type: physicochemical
Procedure: as §1

[5] = test system: common bile duct, vasculature, coronary artery, myocardium; experiment: Multi-wavelength fluorescence imaging with MB and ICG; type: in vivo, pigs; conditions: pig, ICG 800 nm, MB 700 nm
Procedure: Therefore, MB was used to visualize CBD in an anesthetized pig, while ICG was used to visualize vasculature.
To evaluate the possibility of multi-wavelength fluorescent imaging, ICG and methylene blue were used.
1 mg/kg methylene blue IV injection was followed 30 min after by 0.03 mg/kg ICG IV injection. […] NIR camera exposure time was 100 msec.
Next, one of the diagonal branches of the coronary artery (D2) was clamped (white arrow), and then 1 mg/kg of methylene blue was injected intravenously; see the second row of images. Just after releasing the clamp, 0.03 mg/kg ICG was injected intravenously. […] The right-most image in the second row was created by merging the image of the coronary arteriography using methylene blue at clamping D2 and the image using ICG after declamping D2.

[6] = test system: coronary arteries and myocardium; experiment: Angiographic and myocardial perfusion imaging in pigs; type: in vivo
Procedure: as §2, §3
The system was adjusted to account for the optical properties of methylene blue. Briefly, the light source of the original system is composed of a white light source and a near-infrared light source. The surgical field is illuminated with both lights, and its excitation fluence rate is 5 mW/cm^2. […]

common bile duct [7] = experiment: Cholangiographic imaging with methylene blue in pigs; type: in vivo
Procedure: In anesthetized pigs, bile duct was visualized by intravenous injection of 100 μL/kg of 1% MB, or direct cannulation into the common bile duct for injection of 50 μM of MB. Fluorescence intensities of bile duct, liver (right lobe), and abdominal wall were measured at 3, 5, 10, 20, and 30 minutes following injection. For hepatic arteriography and portography, 0.06 mg/kg ICG (75 nmol/kg) is injected intravenously.

[8] = clinical use; cited from earlier work
thoracic duct = experiment: Thoracic duct mapping in pigs; type: in vivo; conditions: 5 mL of 1% into inguinal lymph node
Procedure: In anesthetized pigs, 5 mL of 1% methylene blue was injected into an inguinal lymph node, then the thoracic duct was observed.

Emission Wavelength Maximum, (FBS) ([2]; in FBS): 685 (685) nm | Fluorescence Quantum Yield, (FBS) ([2]; in FBS): 2.5% | Emission Wavelength Maximum, PBS ([2]; in PBS): 685 (685) nm | Fluorescence Quantum Yield, PBS ([2]; in PBS): 5.5% | Emission Wavelength Maximum, [MtOH] ([2]; in methanol): [681] nm | Fluorescence Quantum Yield, [MtOH] ([2]; in methanol): [9.5] % | emission wavelength of MB ([2]; peak shifts as a function of dye concentration, listed as MB): 690-700 nm | fluorescence in acidic solutions ([3]; Ascorbic Acid, HCl): essentially no fluorescence | fluorescence at the more basic pH ([3]; PBS (pH 6), NaHCO3-buffered solution): significant fluorescence | pH favoring the fluorescent methylene blue form ([3]; equilibrium with leucomethylene blue): ≥ 6 | concentration of peak fluorescence intensity ([3]; intermediate concentrations): 4 to 50 µM | Excitation Wavelength Maximum, (FBS) (Absorbance spectrometry; in FBS): 666 nm | Molar Extinction Coefficient, (FBS) (Absorbance spectrometry; in FBS): 86500 M⁻¹ cm⁻¹ | Excitation Wavelength Maximum, PBS (Absorbance spectrometry; in PBS): 665 nm | Molar Extinction Coefficient, PBS (Absorbance spectrometry; in PBS): 71500 M⁻¹ cm⁻¹ | Excitation Wavelength Maximum, [MtOH] (Absorbance spectrometry; in methanol): [653] nm | Molar Extinction Coefficient, [MtOH] (Absorbance spectrometry; in methanol): [71500] M^−1cm^−1
SMILES: CN(C)c1ccc2nc3ccc(=[N+](C)C)cc-3sc2c1 [Methylene Blue, methylene blue]
dye stacking in the liver (common bile duct [1]): No dye stacking in the liver was observed | time of maximal ratio of CBD intensity relative to pancreas and liver (common bile duct [1]): around 10 minutes | time ratio of CBD intensity stayed steady after injection (common bile duct [1]): at least 30 minutes | time until CBD detectable after intravenous injection (common bile duct [1]): 2 to 3 min | performance in the ureter (ureter): less than optimal performance | detection of peripheral branches and coronary vein [4]: not detectable | intravascular (arterial) signals ([4]; 0.1 mg/kg intravenously): not detected | detection of coronary arteries ([4]; 0.5 and 1.0 mg/kg intravenously): could be detected | homogenous signal from the heart wall ([4]; all loading doses): detectable | visibility of the parathyroid (parathyroid gland): visible | structure shown in two-channel NIR imaging [5]: shows the CBD | signal of myocardium distal to occlusion vs well-perfused myocardium ([6]; ligation of diagonal branch of left anterior descending artery): five-fold lower signal | average SBR of whole heart wall fluorescence ([6]; pig, intravenous injection via external jugular vein): about 1.5 | CBD visualization after direct retrograde administration (common bile duct [7]; direct cannulation into CBD): successfully visualized the CBD | identification of intrahepatic bile duct by fluorescence (common bile duct [7]; during hepatic dissection): not identifiable | detection of common bile duct (common bile duct [7]; intravenous): detectable | dose that sometimes causes severe adverse reactions (methemoglobinaemia or anaphylaxis) [8]: 7.5 mg/kg | thoracic duct in the color image (thoracic duct): very faint blue color | thoracic duct in the fluorescence image (thoracic duct): clearly visualized in the fluorescence image
